Laboratory results published in patent US10369146B2, “Phenyl linked quinolinyl modulators of RORγt” (Janssen Pharmaceutica NV, priority 2013, dated 2019).
Counter-ions that a name gives are not always drawn.

Tests used:
[1] = target: T1, human RORγt ligand binding domain (RORγt LBD) (Homo sapiens, UniProt P51449); assay: RORγt ThermoFluor® assay (thermal shift binding); settings: RORγt LBD, 1,8-ANS dye, pH 7.0; Kd estimated from thermal shift
T1 construct: His-tag (N); TurboTEV protease cleavage site (ENLYFQG) (N); made in house; host or cells: E. coli (pHIS1, modified pET vector)
T1 sequence (P51449 with tags, fused parts or gaps): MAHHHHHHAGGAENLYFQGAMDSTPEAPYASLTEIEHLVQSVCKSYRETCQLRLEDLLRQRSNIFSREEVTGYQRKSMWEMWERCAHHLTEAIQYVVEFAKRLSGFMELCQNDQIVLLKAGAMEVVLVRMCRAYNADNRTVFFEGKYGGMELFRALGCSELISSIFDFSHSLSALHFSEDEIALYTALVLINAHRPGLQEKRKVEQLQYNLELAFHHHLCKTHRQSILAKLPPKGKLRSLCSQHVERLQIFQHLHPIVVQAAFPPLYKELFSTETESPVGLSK
Protocol: This approach is applicable to a wide variety of systems, and rigorous in theoretical interpretation through quantitation of equilibrium binding constants (KD).
The shift in the melting point described as a ΔTm is proportional to the concentration and affinity of the ligand.
Protein and compound solutions are dispensed into black 384-well polypropylene PCR microplates (Abgene) and overlayed with silicone oil (1 μL, Fluka, type DC 200) to prevent evaporation.
Bar-coded assay plates are robotically loaded onto a thermostatically controlled PCR-type thermal block and then heated at a typical ramp-rate of 1° C./min for all experiments. Fluorescence was measured by continuous illumination with UV light (Hamamatsu LC6) supplied via fiber optic and filtered through a band-pass filter (380-400 nm; >6 OD cutoff). Fluorescence emission of the entire 384-well plate was detected by measuring light intensity using a CCD camera (Sensys, Roper Scientific) filtered to detect 500±25 nm, resulting in simultaneous and independent readings of all 384 wells. Images were collected at each temperature, and the sum of the pixel intensity in a given area of the assay plate was recorded versus temperature. Reference wells contained RORγt without compounds, and the assay conditions were as follows: • 0.065 mg/mL RORγt • 60 μM 1,8-ANS • 100 mM Hepes, pH 7.0 • 10 mM NaCl • 2.5 mM GSH • 0.002% Tween-20
Project compounds were arranged in a pre-dosed mother plate (Greiner Bio-one) wherein compounds are serially diluted in 100% DMSO by 1:2 from a high concentration of 10 mM over 12 columns within a series (column 12 is a reference well containing DMSO, no compound). The compounds were robotically dispensed directly into assay plates (1×=46 nL) using a Hummingbird capillary liquid handling instrument (Digilab). Following compound dispense, protein and dye in buffer was added to achieve the final assay volume of 3 μL, followed by 1 μL of silicone oil.

[2] = target: T2, human RORγt LBD (Homo sapiens, UniProt P51449); assay: RORγt reporter assay (GAL4-RORγt LBD luciferase, HEK293T cells); assay type: cell-based; settings: for RORγt reporter Assay, % inhibition @ 6 μM: 6 μM compound; for RORγt reporter Assay, % inhibition @ 6 μM / IC50: HEK293T cells; for IC50: 24 hours compound treatment, firefly/renilla luciferase ratio; for inhibition at 6 µM: HEK-293T, read-out: RORγt reporter Assay, % inhibition @ 6 μM, 6 μM compound, HEK293T cells
T2 construct: expressed in transfected cells; host or cells: HEK293T
T2 sequence (P51449 258-518): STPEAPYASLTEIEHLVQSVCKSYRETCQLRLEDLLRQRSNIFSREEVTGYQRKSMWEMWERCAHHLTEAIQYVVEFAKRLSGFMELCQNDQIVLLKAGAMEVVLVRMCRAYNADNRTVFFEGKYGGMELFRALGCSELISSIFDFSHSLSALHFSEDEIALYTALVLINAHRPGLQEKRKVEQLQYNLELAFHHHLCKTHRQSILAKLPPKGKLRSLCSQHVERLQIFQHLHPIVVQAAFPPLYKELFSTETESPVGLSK
Text: A reporter assay was used to test functional activity of RORγt modulatory compounds on transcriptional activation driven by the RORγt LBD. Cells used in the assay were co-transfected with two constructs. The first construct, pBIND-RORγt LBD, contained the wild type human RORγt LBD fused to the DNA binding domain of the GAL4 protein. The second construct, pGL4.31 (Promega Cat no. C935A), contained multiple GAL4 responsive DNA elements upstream of firefly luciferase. […] The mutant construct was called pBIND-RORγt-AF2.
The pBIND vector contains the GAL4 DNA Binding Domain (GAL4 DBD) and the renilla luciferase gene under control of the SV40 promoter. Renilla luciferase expression serves as a control for transfection efficiency and cell viability.
The reporter assay was performed by transiently transfecting HEK293T cells with 5 μg of pBIND-RORγt LBD or pBIND-RORγt LBD-AF2 and 5 μg pGL4.31 (Promega Cat no. C935A) using Fugene 6 (Invitrogen Cat no. E2691) at a 1:6 ratio of DNA:Fugene 6 in a T-75 flask in which cells were at least 80% confluent. Twenty four hours after bulk transfection, cells were plated into 96-well plates at 50,000 cells/well in phenol-red free DMEM containing 5% Lipid Reduced FCS and Pen/Strep. Six hours after plating, cells were treated with compounds for 24 hours. Media was removed and cells were lysed with 50 μL 1×Glo Lysis Buffer (Promega). Dual Glo Luciferase Reagent (50 μL/well) was then added and firefly luciferase luminescence was read on an Envision after a ten minute incubation. Finally, Stop and Glo reagent (50 IAL/well) was added and renilla luciferase luminescence was read on an Envision instrument after a ten minute incubation. To calculate the effect of compounds on RORγt activity, the ratio of firefly to renilla luciferase was determined and plotted against compound concentration. Agonist compounds increase RORγt-driven luciferase expression, and antagonist or inverse agonist compounds decrease luciferase expression.

[3] = test system: IL-17 production by CD4 T cells; assay: Human Th17 assay (IL-17 production by CD4 T cells under Th17 differentiation); assay type: cell-based; settings: 3 days, IL-17 in supernatant
Protocol: The human Th17 assay tests the effect of RORγt modulatory compounds on IL-17 production by CD4 T cells under conditions which favor Th17 differentiation. Total CD4^+ T cells were isolated from the peripheral blood mononuclear cells (PBMC) of healthy donors using a CD4^+ T cell isolation kit II, following the manufacturer's instructions (Miltenyi Biotec). […] 50 μL of compound at titrated concentrations in DMSO were added into each well at final DMSO concentration at 0.2%. Cells were incubated for 1 hour, then 50 μL of Th17 cell differentiation medium was added to each well. The final concentrations of antibodies and cytokines (R&D Systems) in differentiation medium were: 3×10^6/mL anti-CD3/CD28 beads (prepared using human T cell activation/expansion kit, Miltenyi Biotec), 10 μg/mL anti-IL4, 10 μg/mL anti-IFNγ, 10 ng/mL IL1β, 10 ng/mL IL23, 50 ng/mL IL6, 3 ng/mL TGFβ and 20 U/mL IL2. Cells were cultured at 37° C. and 5% CO2 for 3 days. Supernatants were collected and the accumulated IL-17 in culture was measured by using MULTI-SPOT® Cytokine Plate following manufacture's instruction (Meso Scale Discovery). The plate was read using Sector Imager 6000, and IL-17 concentration was extrapolated from the standard curve. The IC50s were determined by GraphPad.

SMILES	Kd [1] [nM]	RORγt reporter Assay, % inhibition @ 6 μM [2] [%]	IC50 [2] [nM]	other results
CC(=O)N1CCC(C(O)(c2cccnc2)c2ccc3nc(C(F)(F)F)c(-c4ccccc4)c(C#N)c3c2)CC1 (single isomer, unassigned) [Example 30c, 6-((1-Acetylpiperidin-4-yl)(hydroxy)(pyridin-3-yl)methyl)-3-phenyl-2-(trifluoromethyl)quinoline-4-carbonitrile]	9	93	140	IC50 [3]: 2200 nM
COc1c(-c2ccccc2)c(Cl)nc2ccc(C(O)(c3cnnn3C)c3cnc(C)n3C)cc12 (single isomer, unassigned) [Example 40b, (2-Chloro-4-methoxy-3-phenylquinolin-6-yl)(1,2-dimethyl-1H-imidazol-5-yl)(1-methyl-1H-1,2,3-triazol-5-yl)methanol]	150		680	
COc1c(-c2ccccc2)c(Cl)nc2ccc(C(O)(c3cnnn3C)c3cnc(C)n3C)cc12 (single isomer, unassigned) [Example 40c, (2-Chloro-4-methoxy-3-phenylquinolin-6-yl)(1,2-dimethyl-1H-imidazol-5-yl)(1-methyl-1H-1,2,3-triazol-5-yl)methanol]	120		190	
Cc1nc(C)c(C(O)(c2ccc3nc(Cl)c(-c4ccccc4)c(Cl)c3c2)c2cncn2C)s1 (stereo not shown) [Example 68, (2,4-Dichloro-3-phenylquinolin-6-yl)(2,4-dimethylthiazol-5-yl)(1-methyl-1H-imidazol-5-yl)methanol]				IC50 ([3]; 72 h): 20 nM
Cn1cncc1C(O)(c1ccc(Cl)cc1)c1ccc2nc(Cl)c(-c3ccccc3)c(Cl)c2c1 (stereo not shown) [Example 65, (4-Chlorophenyl)(2,4-dichloro-3-phenylquinolin-6-yl)(1-methyl-M-imidazol-5-yl)methanol]				IC50 ([3]; 72 h): 1800 nM
Cn1cncc1C(O)(c1ccc(Cl)cc1)c1ccc2nc(C(F)(F)F)c(-c3ccccc3)c(C#N)c2c1 (single isomer, unassigned) [Example 31c, 6-((4-Chlorophenyl)(hydroxy)(1-methyl-1H-imidazol-5-yl)methyl)-3-phenyl-2-(trifluoromethyl)quinoline-4-carbonitrile]	3300	85	1600	
Cc1cc(C(O)(c2ccc(C(F)(F)F)nc2)c2cncn2C)cc2c(C#N)c(-c3ccccc3)c(C#N)nc12 (single isomer, unassigned) [Example 25c, 6-(Hydroxy(1-methyl-1H-imidazol-5-yl)(6-(trifluoromethyl)pyridin-3-yl)methyl)-8-methyl-3-phenylquinoline-2,4-dicarbonitrile]				IC50 ([3]; Homo sapiens, CD4+ T, 72 h): 160 nM
Cn1cncc1C(O)(c1ccc(Cl)cc1)c1ccc2nc(C(F)(F)F)c(-c3ccccc3)c(C#N)c2c1 (single isomer, unassigned) [Example 31a, 6-((4-Chlorophenyl)(hydroxy)(1-methyl-1H-imidazol-5-yl)methyl)-3-phenyl-2-(trifluoromethyl)quinoline-4-carbonitrile.TFA]			150	inhibition at 6 µM [2]: 102%
Cn1cncc1C(O)(c1ccc(Cl)cc1)c1ccc2nc(C(F)(F)F)c(-c3ccccc3)c(C#N)c2c1 (single isomer, unassigned) [Example 31b, 6-((4-Chlorophenyl)(hydroxy)(1-methyl-1H-imidazol-5-yl)methyl)-3-phenyl-2-(trifluoromethyl)quinoline-4-carbonitrile]	5	103	42	IC50 ([3]; Homo sapiens, CD4+ T, 72 h): 20 nM
COc1nc2ccc(C(O)(c3cncn3C)C3CCN(C(C)=O)CC3)cc2c(C#N)c1-c1cccc(C(F)(F)F)c1 (single isomer, unassigned) [Example 2c, 6-((1-Acetylpiperidin-4-yl)(hydroxy)(1-methyl-1H-imidazol-5-yl)methyl)-2-methoxy-3-(3-(trifluoromethyl)phenyl)quinoline-4-carbonitrile]			170	
CC(=O)N1CCC(C(O)(c2cccnc2)c2ccc3nc(C(F)(F)F)c(-c4ccccc4)c(C#N)c3c2)CC1 (single isomer, unassigned) [Example 30a, 6-((1-Acetylpiperidin-4-yl)(hydroxy)(pyridin-3-yl)methyl)-3-phenyl-2-(trifluoromethyl)quinoline-4-carbonitrile.TFA]	23		110	inhibition at 6 µM [2]: 91%
CC(=O)N1CCC(C(O)(c2cccnc2)c2ccc3nc(C(F)(F)F)c(-c4ccccc4)c(C#N)c3c2)CC1 (single isomer, unassigned) [Example 30b, 6-((1-Acetylpiperidin-4-yl)(hydroxy)(pyridin-3-yl)methyl)-3-phenyl-2-(trifluoromethyl)quinoline-4-carbonitrile]	300	95	49	IC50 [3]: 57 nM
